Measurements as given in US8669292B2, “Therapeutic formulation” (Orion Therapeutics, LLC, priority 2005, dated 2014).
≈ marks a conversion by molar mass, not a printed value. Like-named read-outs stand apart in the source and are kept apart here.

How the values were obtained:
[1] = system: Colon 38 Colon Cancer; assay: IC50 assay (concentration-cell number study); type: cell-based
Procedure: (§2) These cells are grown in 5 ml culture medium (RPMI-1640+15% Bovine Calf serum containing 1% penicillin-streptomycin, and 1% Glutamine) at 37° C. and 5% CO2 at a starting concentration of 5×10^4 cells/T25 flask. On day 3, cells are exposed to different concentrations of the drug. Flasks are incubated for 120 h (5 d) in a 5% CO2 incubator at 37° C. and the cells harvested with trypsin, washed once with Hanks Balanced Salt Solution (HBSS) and re-suspended in HBSS containing 0.08% Trypan Blue. Both viable and dead cells are counted using a hemocytometer. Viable cell numbers are normalized to an untreated control and plotted as a function of drug concentration. The IC50 value is determined using Prism 4.0.
(§3) Cell Lines utilized in IC50 Assays: HCT-116 human colon cancer cells, H125 Lung Cancer, MCF-7, Breast Cancer, MDA-235 Breast Cancer, LNCaP Prostate Cancer, OVAR-5 Ovarian Cancer, U251N Brain Cancer Sarcoma 180, Panc 01Pancreatic Cancer, CCRF-CEM Leukemia, HEP-G2 Liver Cancer, L1210 Leukemia, Colon 38 Colon Cancer.

[2] = system: U251N Brain Cancer; assay: IC50 assay (concentration-cell number study); type: cell-based
Procedure: (§4) Concentration-cell number studies (IC50 assay) were carried out utilizing 12 separate compositions (numbered 1-12 below) against 13 different cancer cell lines (see Table 6). These cells are grown in 5 ml culture medium (RPMI-1640+15% Bovine Calf serum containing 1% penicillin-streptomycin, and 1% Glutamine) at 37° C. and 5% CO2 at a starting concentration of 5×10^4 cells/T25 flask. On day 3, cells are exposed to different concentrations of the drug. Flasks are incubated for 120 h (5 d) in a 5% CO2 incubator at 37° C. and the cells harvested with trypsin, washed once with Hanks Balanced Salt Solution (HBSS) and re-suspended in HBSS containing 0.08% Trypan Blue. Both viable and dead cells are counted using a hemocytometer. Viable cell numbers are normalized to an untreated control and plotted as a function of drug concentration. The IC50 value is determined using Prism 4.0.

[3] = HORAC (Brunswick Test # A104); type: biochemical
Procedure: Peroxyl radical scores are measured in the ORAC test (Oxygen Radical Absorption Capacity). Hydroxyl Radicals are tested in the HORAC test (Hydroxyl Radical Absorption Capacity). Peroxynitrite Radicals are tested in the NORAC test (Peroxynitrite Radical Absorption Capacity). Superoxide Radicals are measured in the SOD test (Superoxide Radical Absorption Capacity). […] The result is expressed as micromoles of caffeic acid equivalent per liter (CAE/L) for liquid formulations and caffeic acid equivalent per gram (CAE/g) for dry powders.

[4] = NORAC (Brunswick Test # A105); type: biochemical
Procedure: Peroxyl radical scores are measured in the ORAC test (Oxygen Radical Absorption Capacity). Hydroxyl Radicals are tested in the HORAC test (Hydroxyl Radical Absorption Capacity). Peroxynitrite Radicals are tested in the NORAC test (Peroxynitrite Radical Absorption Capacity). Superoxide Radicals are measured in the SOD test (Superoxide Radical Absorption Capacity). Applicant's compounds and compositions were tested by the NORAC test (Brunswick test # A 105), which measures the activity of a given antioxidant against peroxynitrite radicals. NORAC tests were based on the method of Chung H. et al (2001) Journal Agricultural of Food Chemistry, 49: 3614-3621. Scores are expressed in micromoles of trolox equivalent per liter (TE/L) for liquid formulations and Trolox equivalent per gram (TE/g) for dry powders.

[5] = system: H125 Lung Cancer; assay: IC50 assay (concentration-cell number study); type: cell-based
Procedure: as §2, §3

[6] = ORAC lipo (Brunswick Test # A102); type: biochemical
Procedure: (§1) Peroxyl radical scores are measured in the ORAC test (Oxygen Radical Absorption Capacity). Hydroxyl Radicals are tested in the HORAC test (Hydroxyl Radical Absorption Capacity). Peroxynitrite Radicals are tested in the NORAC test (Peroxynitrite Radical Absorption Capacity). Superoxide Radicals are measured in the SOD test (Superoxide Radical Absorption Capacity). The ORAC test measures the antioxidant activity against peroxyl radicals by determining how many peroxyl free radicals can be absorbed by a given antioxidant as compared to the vitamin E analog-Trolox. The result is expressed as micromoles of Trolox equivalent per liter (TE/L) for liquid formulations and Trolox equivalent per gram (TE/g) for dry powders. Brunswick tested the Applicant's compounds for antioxidant activity against both hydrophilic and lipophilic peroxyl radicals as expressed in the ORAC total (see table 7).

[7] = SORAC (Brunswick Test # A106); type: biochemical
Procedure: Peroxyl radical scores are measured in the ORAC test (Oxygen Radical Absorption Capacity). Hydroxyl Radicals are tested in the HORAC test (Hydroxyl Radical Absorption Capacity). Peroxynitrite Radicals are tested in the NORAC test (Peroxynitrite Radical Absorption Capacity). Superoxide Radicals are measured in the SOD test (Superoxide Radical Absorption Capacity). Applicant's compounds and compositions were tested by the SORAC test (Brunswick test #106), which measures the activity of a given antioxidant against Superoxide radicals. The tests were conducted based on the method of Zhao et al (1999) Journal of Agricultural and Food Chemistry, (1999), 47: 2537-2543. The calibration standard was SOD and was expressed as a unit SOD equivalent per liter (unitsSODeq/L) for liquid formulations and unit SOD equivalent per gram (unitsSODeq/g) for dry powders.

[8] = system: L1210 Leukemia; assay: IC50 assay (concentration-cell number study); type: cell-based
Procedure: as §4

[9] = system: Panc 01 Pancreatic Cancer; assay: IC50 assay (concentration-cell number study); type: cell-based
Procedure: as §4

[10] = ORAC hydro (Brunswick Test # A101); type: biochemical
Procedure: as §1

[11] = system: Sarcoma 180; assay: IC50 assay (concentration-cell number study); type: cell-based
Procedure: as §4

[12] = system: MCF-7 Breast Cancer; assay: IC50 assay (concentration-cell number study); type: cell-based
Procedure: as §4

[13] = system: 13 different cancer cell lines; assay: IC50 assays, average or range over all cell lines; type: cell-based
Procedure: as §2, §3

[14] = system: HCT-116 human colon cancer cells; assay: Clonogenic dose response; type: cell-based
Procedure: Clonogenic survival of the cells was measured by a standard tissue culture procedure.
Asimicin was prepared in ethanol. Clonogenic survival of the cells was measured by a standard tissue culture procedure.

[15] = system: HEP-G2 Liver Cancer; assay: IC50 assay (concentration-cell number study); type: cell-based
Procedure: as §4

[16] = in vivo; cited from earlier work
[17] = system: HCT-116 human colon cancer cells; assay: IC50 assay (concentration-cell number study); type: cell-based; conditions: for IC50: Homo sapiens
Procedure: Concentration-cell number studies (IC50 assay) were carried out utilizing 12 separate compositions (numbered 1-12 below) against 13 different cancer cell lines (see Table 6). […] On day 3, cells are exposed to different concentrations of the drug. Flasks are incubated for 120 h (5 d) in a 5% CO2 incubator at 37° C. and the cells harvested with trypsin, washed once with Hanks Balanced Salt Solution (HBSS) and re-suspended in HBSS containing 0.08% Trypan Blue. Both viable and dead cells are counted using a hemocytometer. Viable cell numbers are normalized to an untreated control and plotted as a function of drug concentration. The IC50 value is determined using Prism 4.0.

[18] = ORAC total (Brunswick Test # A103); type: biochemical
Procedure: as §1

[19] = system: MDA-235 Breast Cancer; assay: IC50 assay (concentration-cell number study); type: cell-based
Procedure: as §4

[20] = system: OVAR-5 Ovarian Cancer; assay: IC50 assay (concentration-cell number study); type: cell-based
Procedure: as §4

[21] = system: LNCaP Prostate Cancer; assay: IC50 assay (concentration-cell number study); type: cell-based
Procedure: as §4

[22] = system: CCRF-CEM Leukemia; assay: IC50 assay (concentration-cell number study); type: cell-based
Procedure: as §4

[23] = Cantron oral liquid scores converted from TE/L to TE/g
[24] = Mus musculus, 120 h exposure, read-out: IC50
[25] = Homo sapiens, 120 h exposure, read-out: IC50

Oc1ccccc1O [Composition 2, Catechol]
IC50 times lower than Cantron (times more efficacious than Cantron) [1]: 11.36 times lower than | IC50 ([1]; 120 h exposure, read-out: IC50): 2.2 µg/mL (≈ 20 µM) | IC50 times lower than Cantron (times more efficacious than Cantron) [2]: 10.45 times lower than | IC50 ([2]; 120 h exposure, read-out: IC50): 2.2 µg/mL (≈ 20 µM) | HORAC SCORE ([3]; Cantron oral liquid scores converted from CAE/L to CAE/g): 5,572 micromoles CAE/g | more effective than Cantron NM ([3]; Hydroxyl score ratio): 2,079% more effective than | NORAC SCORE [4, 23]: 2,593 micromoles TE/g | more effective than the improved Cantron ASV ([4]; Peroxynitrite score ratio): is still 409.63% more effective | IC50 times lower than Cantron (times more efficacious than Cantron) [5]: 14.29 times lower than | IC50 ([5]; Homo sapiens, NCI-H125, 120 h exposure, read-out: IC50): 2.1 µg/mL (≈ 19.1 µM) | ORAC lipo SCORE [6, 23]: 24,682 micromoles TE/g | more effective than the improved Cantron ASV ([6]; Peroxyl-lipo score ratio): is still 4086.4% more effective | SOD SCORE ([7]; Cantron oral liquid scores converted from unitsSODeq/L to unitsSODeq/g): 159,000 unitsSODeq/g | more effective than the improved Cantron ASV ([7]; Superoxide score ratio): is still 441.66% more effective | IC50 times lower than Cantron (times more efficacious than Cantron) [8]: 10.52 times lower than | IC50 [8, 24]: 1.9 µg/mL (≈ 17.3 µM) | IC50 times lower than Cantron (times more efficacious than Cantron) [9]: 14.71 times lower than | IC50 ([9]; 120 h exposure, read-out: IC50): 1.7 µg/mL (≈ 15.4 µM) | ORAC hydro SCORE [10, 23]: 48,479 micromoles TE/g | more effective than the improved Cantron ASV ([10]; Peroxyl-hydro score ratio): is still 507% more effective than | IC50 times lower than Cantron (times more efficacious than Cantron) [11]: 12.11 times lower than | IC50 [11, 24]: 1.9 µg/mL (≈ 17.3 µM) | IC50 times lower than Cantron (times more efficacious than Cantron) [12]: 11.36 times lower than | IC50 ([12]; 120 h exposure): to 2.2 μg/ml). It is | IC50 ([12]; Homo sapiens, MCF7, 120 h exposure, read-out: IC50): 2.2 µg/mL (≈ 20 µM) | IC50 ([13]; average of 13 cell lines): 2.3 µg/mL (≈ 20.9 µM) | times more efficacious than Cantron ([13]; average over the cell lines tested): 10.35 times | clonogenic survival ([14]; 24 h exposure, 10 micrograms/ml): 0.1 | effect on clonogenic survival ([14]; 24 h exposure, concentrations up to 1 microgram/ml): no effect | effect on the survival of the tumor cells ([14]; concentration of up to 10 micrograms/ml, exposure time not given): no effect | concentration with cell survival at the 0.1 level ([14]; extended exposure 168 h): 200 picograms/ml | IC50 times lower than Cantron (times more efficacious than Cantron) [15]: 4.61 times lower than | IC50 ([15]; Homo sapiens, HepG2, 120 h exposure, read-out: IC50): 2.6 µg/mL (≈ 23.6 µM) | known side effects in animal tests [16]: stomach irritation and hyperplasia | IC50 times lower than Cantron (times more efficacious than Cantron) ([17]; HCT-116): 7.04 times lower than | calculated cytotoxicity value of catechol ([17]; HCT-116, Cantron score 19.7 multiplied by 12.7% catechol by weight): 2.5019 µg/mL | IC50 ([17]; HCT-116, 120 h, HCT-116, 120 h exposure, read-out: IC50): 2.8 µg/mL (≈ 25.4 µM) | IC50 ([17]; HCT-116, read-out: calculated cytotoxicity value of catechol, HCT-116, Cantron score 19.7 multiplied by 12.7% catechol by weight): 2.5 µg/mL (≈ 22.7 µM) | TOTAL ORAC SCORE [18, 23]: 73,161 micromoles TE/g | more effective than Cantron NM ([18]; Peroxyl-total score ratio): The Catechol composition is 1702% | IC50 times lower than Cantron (times more efficacious than Cantron) [19]: 9.33 times lower than | IC50 ([19]; 120 h exposure, read-out: IC50): 3 µg/mL (≈ 27.2 µM) | IC50 times lower than Cantron (times more efficacious than Cantron) [20]: 3.69 times lower than | IC50 ([20]; 120 h exposure, read-out: IC50): 3.2 µg/mL (≈ 29.1 µM) | IC50 times lower than Cantron (times more efficacious than Cantron) [21]: 18.82 times lower than | IC50 [21, 25]: 1.7 µg/mL (≈ 15.4 µM) | IC50 times lower than Cantron (times more efficacious than Cantron) [22]: 6.19 times lower than | IC50 [22, 25]: 2.1 µg/mL (≈ 19.1 µM)
